# Test results taken from the supplement of paper PMC10307832.
# How the values were obtained:
# Assay in all cases: relative viability (nuclei count vs DMSO), 5 days (fraction); higher = more cells survive
# [1] = compound: CN[C@@H]1C[C@H]2O[C@@](C)([C@@H]1OC)n1c3ccccc3c3c4c(c5c6ccccc6n2c5c31)C(=O)NC4 [Staurosporine] + CC1(C)CCC(c2ccc(Cl)cc2)=C(CN2CCN(c3ccc(C(=O)NS(=O)(=O)c4ccc(N[C@H](CCN5CCOCC5)CSc5ccccc5)c(S(=O)(=O)C(F)(F)F)c4)cc3)CC2)C1 [Navitoclax] (partner 0.5 µM)
# In short: (§1)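 After 5 days of treatment, lung cancer cells in 1536-well plates were fixed and stained in a single step (final 0.05% Triton X-100, 1% formaldehyde, 1 ug/ml Hoechst) and their nuclei counted on 4× images. Treatment had been applied by pin tool the day after seeding as one drug alone or as a fixed anchor-drug dose with five library-drug doses (not always all listed) in √10 steps. Relative viability is the nuclei count of treated wells divided by that of vehicle wells, and values are medians of duplicate plates.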
# [2] = compound: CN[C@@H]1C[C@H]2O[C@@](C)([C@@H]1OC)n1c3ccccc3c3c4c(c5c6ccccc6n2c5c31)C(=O)NC4 [Staurosporine] + COc1cc2c(Oc3ccc(NC(=O)C4(C(=O)Nc5ccc(F)cc5)CC4)cc3F)ccnc2cc1OCCCN1CCOCC1 [Foretinib] (partner 0.25 µM)
# In short: as §1
# [3] = compound: CN[C@@H]1C[C@H]2O[C@@](C)([C@@H]1OC)n1c3ccccc3c3c4c(c5c6ccccc6n2c5c31)C(=O)NC4 [Staurosporine] + Cc1nc(NC(=O)N2CCC[C@H]2C(N)=O)sc1-c1ccnc(C(C)(C)C(F)(F)F)c1 [Alpelisib] (partner 2 µM)
# In short: as §1
# [4] = compound: O=c1[nH]cc(F)c(=O)[nH]1 [5-Fluorouracil] + CC(=O)Nc1cccc(-n2c(=O)n(C3CC3)c(=O)c3c(Nc4ccc(I)cc4F)n(C)c(=O)c(C)c32)c1 [Trametinib] (partner 0.02 µM)
# In short: as §1
Cell Line,relative viability ([1]; first compound 0.005 µM),relative viability ([1]; first compound 0.01581 µM),relative viability ([1]; first compound 0.05 µM),relative viability ([1]; first compound 0.1581 µM),relative viability ([1]; first compound 0.5 µM),relative viability ([2]; first compound 0.005 µM),relative viability ([2]; first compound 0.05 µM),relative viability ([2]; first compound 0.1581 µM),relative viability ([2]; first compound 0.5 µM),relative viability ([3]; first compound 0.005 µM),relative viability ([3]; first compound 0.01581 µM),relative viability ([3]; first compound 0.05 µM),relative viability ([3]; first compound 0.1581 µM),relative viability ([3]; first compound 0.5 µM),relative viability ([4]; first compound 0.02 µM),relative viability ([4]; first compound 0.2 µM),relative viability ([4]; first compound 0.6325 µM),relative viability ([4]; first compound 2 µM),relative viability ([2]; first compound 0.01581 µM)
NCI-H2170,0.708,0.376,0.421,0.219,0.189,1.04,0.866,0.382,0.307,0.903,0.611,0.568,0.377,0.281,0.976,0.78,0.478,0.312,–
NCI-H2228,0.6,0.399,0.165,0.127,0.0586,0.889,0.317,0.11,0.0985,0.658,0.204,0.155,0.148,0.0961,0.628,0.685,0.441,0.326,0.537
NCI-H2347,0.854,0.524,0.274,0.284,0.225,1.04,0.374,0.289,0.422,1.03,0.67,0.34,0.364,–,0.281,0.256,0.293,0.166,0.588
NCI-H2405,0.132,0.061,0.0985,0.0939,0.0834,0.675,–,0.105,0.0788,0.185,0.131,0.101,0.075,0.0622,0.629,0.692,0.579,0.6,0.302
NCI-H3122,1.04,0.46,0.993,0.672,0.223,1.03,0.76,0.695,0.371,1.07,0.302,0.758,0.209,0.217,0.232,0.296,0.187,0.176,–
PC-3 [JPC-3],0.933,–,0.552,0.485,0.406,1.07,0.525,0.359,0.4,1.05,–,0.638,0.508,0.39,0.784,0.823,0.782,0.661,0.483
PC-14,0.901,0.562,0.887,0.0852,0.053,0.929,0.38,0.102,0.0787,0.693,0.452,0.172,0.0738,0.0496,0.837,0.734,0.81,0.456,0.718
RERF-LC-KJ,1.14,0.665,0.479,0.244,0.236,0.876,0.702,0.491,0.191,0.916,0.637,0.392,0.282,0.21,0.949,0.811,0.838,0.7,0.824
SK-LU-1,0.323,0.115,0.131,0.151,0.059,0.267,–,0.119,0.132,0.264,0.188,0.18,0.158,0.122,0.458,0.598,0.435,0.464,0.192
SK-MES-1,0.925,0.329,0.28,0.173,0.134,0.626,0.293,0.333,0.142,0.849,0.534,0.246,0.18,0.177,0.496,0.552,0.381,0.352,0.581
SW 1573,0.898,0.297,0.193,0.0915,0.0731,0.852,0.203,0.176,0.104,0.45,0.299,0.144,0.14,0.148,0.576,0.631,0.497,0.306,0.943
